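Briefly, cells in 96-well plates were exposed to five compound concentrations for 48 h, and endpoints were estimated by linear interpolation. GI50 marks 50% less growth.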 Calls of active or inactive are those of the source. No stated cut-off is given here; in the data, active = GI50 up to about 1.1 µM and inactive = higher.
How the values were obtained:
Test in all cases: inhibition of tumour cell growth, NCI panel, 48 h
TK-10 = system: TK-10
SF-268 = system: SF-268
HL-60 = system: HL-60
NCI-H522 = system: NCI-H522
LOX IMVI = system: LOX IMVI
M14 = system: M14
OVCAR-3 = system: OVCAR-3
NCI-H226 = system: NCI-H226
K562 = system: K562
HCT-116 = system: HCT-116
IGROV-1 = system: IGROV-1
LXFL 529 = system: LXFL 529
SR = system: SR
HOP-92 = system: HOP-92
A498 = system: A498
HT-29 = system: HT-29
UACC-62 = system: UACC-62
OVCAR-5 = system: OVCAR-5
M19-MEL = system: M19-MEL
CCRF-CEM = system: CCRF-CEM
SK-MEL-28 = system: SK-MEL-28
KM12 = system: KM12
NCI-H460 = system: NCI-H460
EKVX = system: EKVX
SF-295 = system: SF-295
SNB-19 = system: SNB-19
U-251 = system: U-251
UACC-257 = system: UACC-257
UO-31 = system: UO-31
ACHN = system: ACHN
SF-539 = system: SF-539
SN12C = system: SN12C
MOLT-4 = system: MOLT-4
DMS-273 = system: DMS-273
SK-MEL-2 = system: SK-MEL-2
HOP-62 = system: HOP-62
SW-620 = system: SW-620
OVCAR-4 = system: OVCAR-4
A549 = system: A549
COLO 205 = system: COLO 205
XF498 = system: XF498
RPMI-8226 = system: RPMI-8226
RXF 631 = system: RXF 631
OVCAR-8 = system: OVCAR-8
CAKI-1 = system: CAKI-1
RXF 393 = system: RXF 393
786-0 = system: 786-0
NCI-H23 = system: NCI-H23
KM-20L2 = system: KM-20L2
SNB-75 = system: SNB-75
SK-OV-3 = system: SK-OV-3
SK-MEL-5 = system: SK-MEL-5
SNB-78 = system: SNB-78
HCT-15 = system: HCT-15
MDA-MB-231 = system: MDA-MB-231
PC-3 = system: PC-3
MDA-MB-435 = system: MDA-MB-435
DU-145 = system: DU-145
MDA-N = system: MDA-N
NCI/ADR-RES = system: NCI/ADR-RES
Hs-578T = system: Hs-578T
HOP-18 = system: HOP-18
DMS-114 = system: DMS-114
HCC 2998 = system: HCC 2998
T47D = system: T47D
DLD-1 = system: DLD-1
Malme-3M = system: Malme-3M
MCF7 = system: MCF7

Measured: GI50

CCC(=O)C(C(=O)CC)c1c(OC(=O)c2ccccc2)ccc(O)c1C(=O)OC
inactive: TK-10 > 100 µM | SF-268 > 100 µM | HL-60 > 100 µM | NCI-H522 > 100 µM | LOX IMVI > 100 µM | M14 > 100 µM | OVCAR-3 > 100 µM | NCI-H226 > 100 µM | K562 > 100 µM | HCT-116 > 100 µM | IGROV-1 > 100 µM | LXFL 529 > 100 µM | SR 89.9 µM | HOP-92 > 100 µM | A498 > 100 µM | HT-29 > 100 µM | UACC-62 > 100 µM | OVCAR-5 > 100 µM | M19-MEL > 100 µM | CCRF-CEM > 100 µM | SK-MEL-28 > 100 µM | KM12 > 100 µM | NCI-H460 > 100 µM | EKVX > 100 µM | SF-295 > 100 µM | SNB-19 > 100 µM | U-251 > 100 µM | UACC-257 > 100 µM | UO-31 > 100 µM | ACHN > 100 µM | SF-539 > 100 µM | SN12C > 100 µM | MOLT-4 72.3 µM | DMS-273 > 100 µM | SK-MEL-2 > 100 µM | HOP-62 > 100 µM | SW-620 > 100 µM | OVCAR-4 > 100 µM | A549 > 100 µM | COLO 205 > 100 µM | XF498 > 100 µM | RPMI-8226 > 100 µM | RXF 631 > 100 µM | OVCAR-8 > 100 µM | CAKI-1 > 100 µM | RXF 393 > 100 µM | 786-0 > 100 µM | NCI-H23 > 100 µM | KM-20L2 > 100 µM | SNB-75 90.8 µM | SK-OV-3 > 100 µM | SK-MEL-5 > 100 µM | SNB-78 > 100 µM
> 100 µM: HCT-15

CC1=C(C(=O)Nc2ccccc2)C(c2ccc(N(C)C)cc2)C(C(=O)Nc2ccccc2)=C(C)N1
active: K562 1.09 µM | LXFL 529 0.175 µM | MDA-MB-435 0.804 µM | UACC-62 0.2 µM | M19-MEL 0.685 µM | KM12 0.964 µM | ACHN 0.494 µM | DMS-273 0.428 µM | DMS-114 0.211 µM | KM-20L2 0.439 µM | SK-MEL-5 1.1 µM
0.493 µM: HCT-15
inactive: TK-10 39.4 µM | SF-268 9.31 µM | HL-60 5.3 µM | MDA-MB-231 29.1 µM | NCI-H522 6.64 µM | LOX IMVI 2.82 µM | PC-3 4.08 µM | M14 1.5 µM | OVCAR-3 8.69 µM | NCI-H226 > 89.5 µM | HCT-116 4.72 µM | IGROV-1 16.9 µM | SR 11.1 µM | HOP-92 65.9 µM | A498 > 100 µM | HT-29 3.72 µM | OVCAR-5 18.6 µM | CCRF-CEM 3.94 µM | DU-145 3.17 µM | SK-MEL-28 12.4 µM | MDA-N 1.75 µM | NCI-H460 1.43 µM | EKVX 62.8 µM | SF-295 3.54 µM | SNB-19 64.3 µM | U-251 15.9 µM | UACC-257 8.32 µM | UO-31 2.37 µM | SF-539 9.59 µM | SN12C 46.3 µM | NCI/ADR-RES > 100 µM | MOLT-4 2.89 µM | SK-MEL-2 > 70.1 µM | Hs-578T > 100 µM | HOP-62 5 µM | SW-620 13.7 µM | OVCAR-4 50.8 µM | HOP-18 > 100 µM | A549 3.31 µM | COLO 205 1.41 µM | XF498 > 100 µM | RPMI-8226 3.13 µM | HCC 2998 2.86 µM | OVCAR-8 11.9 µM | T47D 3.33 µM | CAKI-1 25.3 µM | RXF 393 > 85.1 µM | 786-0 29.6 µM | DLD-1 8.36 µM | Malme-3M 4.79 µM | NCI-H23 24.9 µM | SNB-75 35.6 µM | MCF7 10.3 µM | SK-OV-3 59.2 µM | SNB-78 > 37.1 µM

Cc1ccc(S(=O)(=O)OC(C=O)C(O)C(O)COC(c2ccccc2)(c2ccccc2)c2ccccc2)cc1 (stereo unspecified)
14.1 µM: HCT-15
active: RXF 631 0.46 µM
inactive: SF-268 19.6 µM | NCI-H522 13.1 µM | LOX IMVI 19.1 µM | M14 16.1 µM | OVCAR-3 14.9 µM | NCI-H226 14.9 µM | K562 16.9 µM | HCT-116 16.4 µM | IGROV-1 15.1 µM | LXFL 529 12.8 µM | SR 5.43 µM | A498 18 µM | HT-29 12.2 µM | UACC-62 15.2 µM | OVCAR-5 20.1 µM | M19-MEL 13.1 µM | SK-MEL-28 20.6 µM | KM12 11.9 µM | NCI-H460 14 µM | EKVX 13.9 µM | SF-295 12.2 µM | SNB-19 14.8 µM | U-251 14.4 µM | UACC-257 13.2 µM | UO-31 16.8 µM | ACHN 15.3 µM | SF-539 16.3 µM | SN12C 15.5 µM | MOLT-4 6.08 µM | DMS-273 21.9 µM | SK-MEL-2 16.2 µM | HOP-62 16.9 µM | SW-620 16.4 µM | OVCAR-4 18.2 µM | A549 18.2 µM | XF498 15.8 µM | RPMI-8226 12.2 µM | DMS-114 17.6 µM | HCC 2998 12 µM | OVCAR-8 13.6 µM | CAKI-1 19.8 µM | RXF 393 15.2 µM | 786-0 14.1 µM | Malme-3M 19 µM | KM-20L2 14.1 µM | SNB-75 14.9 µM | SK-OV-3 15 µM | SK-MEL-5 15.4 µM

Cc1cc(C)n2c(-c3ccccc3)c(C)cc2n1
16.7 µM: HCT-15
active: CCRF-CEM 1.09 µM
inactive: TK-10 > 100 µM | SF-268 > 100 µM | HL-60 5.68 µM | NCI-H522 21.2 µM | LOX IMVI 65 µM | M14 43.5 µM | OVCAR-3 25.6 µM | NCI-H226 36.2 µM | K562 8.17 µM | HCT-116 67.8 µM | IGROV-1 66.2 µM | HOP-92 53.2 µM | A498 35.2 µM | HT-29 25.8 µM | UACC-62 28.2 µM | OVCAR-5 > 100 µM | M19-MEL 30.2 µM | SK-MEL-28 > 100 µM | KM12 60.8 µM | NCI-H460 37.3 µM | EKVX 64 µM | SF-295 48 µM | SNB-19 52.2 µM | U-251 34 µM | UACC-257 > 100 µM | UO-31 34.9 µM | ACHN 95.7 µM | SF-539 24.3 µM | SN12C 50.5 µM | DMS-273 27.5 µM | SK-MEL-2 15.3 µM | HOP-62 53.7 µM | SW-620 34 µM | OVCAR-4 73.3 µM | HOP-18 > 100 µM | A549 75.5 µM | COLO 205 43.5 µM | DMS-114 23.8 µM | RXF 631 43.6 µM | HCC 2998 34.8 µM | OVCAR-8 49.1 µM | CAKI-1 30.9 µM | RXF 393 39.4 µM | 786-0 78 µM | DLD-1 42.3 µM | Malme-3M 49.4 µM | NCI-H23 41.1 µM | KM-20L2 29 µM | SNB-75 23.1 µM | SK-OV-3 60.3 µM | SK-MEL-5 26.9 µM | SNB-78 94.6 µM

CCCCCCCCCC(=O)N[C@H]1CCc2cc(OC)c(OC)c(OC)c2-c2ccc(SC)c(=O)cc21
active: TK-10 0.759 µM | SF-268 0.0223 µM | HL-60 0.034 µM | NCI-H522 < 0.01 µM | LOX IMVI 0.043 µM | M14 0.0226 µM | OVCAR-3 0.0226 µM | NCI-H226 0.0231 µM | K562 0.0395 µM | HCT-116 0.0209 µM | IGROV-1 0.0387 µM | LXFL 529 0.0297 µM | SR 0.0328 µM | HOP-92 0.0168 µM | A498 0.0255 µM | HT-29 0.0261 µM | UACC-62 0.0353 µM | M19-MEL 0.0445 µM | CCRF-CEM 0.0426 µM | KM12 0.0209 µM | NCI-H460 0.0347 µM | EKVX 0.0527 µM | SF-295 0.0274 µM | SNB-19 0.0329 µM | U-251 0.0274 µM | UACC-257 0.0417 µM | UO-31 0.231 µM | ACHN 0.0507 µM | SF-539 0.0224 µM | SN12C 0.0365 µM | MOLT-4 0.0392 µM | DMS-273 < 0.01 µM | HOP-62 0.0478 µM | SW-620 0.0316 µM | OVCAR-4 0.408 µM | A549 0.0376 µM | COLO 205 0.00345 µM | XF498 0.022 µM | RPMI-8226 0.0422 µM | DMS-114 0.0188 µM | RXF 631 0.0197 µM | HCC 2998 0.0247 µM | OVCAR-8 0.0338 µM | CAKI-1 0.056 µM | RXF 393 0.0224 µM | 786-0 0.0393 µM | DLD-1 0.0352 µM | Malme-3M 0.0226 µM | NCI-H23 0.0216 µM | KM-20L2 0.0198 µM | SNB-75 0.0395 µM | SK-OV-3 0.0238 µM | SK-MEL-5 0.024 µM | SNB-78 0.0405 µM
0.0313 µM: HCT-15
inactive: OVCAR-5 29.7 µM

From ChEMBL document CHEMBL1201862, “PubChem BioAssay data set” (2004)
